Common to all, as to format: binding
Test [1] concerns anti-PGE2 antibody. The experiment in a line: Two-plex single molecule array assay for PGE2 and cortisol: PGE2. The settings on record: simultaneous detection of cortisol and PGE2. The procedure: (§1) Carboxylated 2.7 μm paramagnetic beads (˜4×10^8), non-encoded for single-plex assays and dye-encoded (488 nm and 647 nm) for multiplex assays, were washed three times with 600 μL of bead wash buffer (0.1% TWEEN® 20 in 1× PBS, pH 7.4) and twice with 400 μL of MES buffer (50 mM MES, pH 6.2). 1 mg/mL EDC in MES buffer was freshly prepared and 200 μL was added to the beads and mixed well. The beads were activated on a shaker for 30 min. After activation, the beads were washed once with 200 μL of MES buffer. 200 μL of 10 mg/mL BSA or BSA-cortisol conjugate in MES buffer were added to the activated beads. The beads were incubated at room temperature with shaking for 2 h, and then washed three times with bead wash buffer. […] The beads were counted using a Beckman-Coulter MULTISIZER™.
(§2) A two-step assay configuration was chosen when hapten-BSA-coated beads were used. […] Images of the arrays were analyzed and AEB (average enzyme per bead) values were calculated by the software in the SIMOA HD-1 ANALYZER™.
(§3) Standard curves were obtained by plotting the signal responses (AEB and OD) against the logarithm of analyte concentrations using Origin software (Origin 9.5). […] The limit of detection (LOD) was calculated as three standard deviations (SDs) above the background. […]

Test [2] deals with anti-PGE2 antibody. The experiment in a line: Single-plex competitive single molecule array assay for PGE2 (BSA-PGE2 beads). The protocol:
as §1, §2, §3

A short description of test [3]: Conventional competitive ELISA for cortisol (BSA-cortisol coated plate). To be noted: cortisol concentration causing 50% inhibition of maximum response. The procedure: The high-binding 96-well microtiter plate was coated with BSA-cortisol conjugate in PBS (1 μg/mL, 100 μL/well) overnight at 4° C. After washing, the plate was blocked with 1% BSA in PBS (200 μL/well) for 1 h at room temperature and subsequently washed. Next, biotinylated anti-cortisol (10 nM, 10 μL/well) in PBS and serial concentrations of cortisol standard (0, 0.001, 0.01, 0.1, 1, 10, 100 and 1,000 ng/mL,100 μL/well) prepared in Sample Diluent were added to the wells. The immunoreaction was allowed to proceed for 1 h. After washing, the plate was incubated with streptavidin-horseradish peroxidase (HRP((2 nM, 100 μL/well) for 30 min. After another washing, 3,3′,5,5′-tetramethylbenzidine (TMB) substrate (100 μL/well) was added and the plate was incubated for 15 min. Next, 50 μL of 1 mol/L hydrochloric acid was added to each well to stop the enzymatic reaction. Finally, the optical density (OD) was recorded at 450 nm on a Tecan Infinite M200 Plate Reader.
as §3

Test [4] can be described thus: Competitive single molecule array assay, BSA-cortisol MBs (two-step, single-plex). The settings on record: single-plex comparison to IL-6/cortisol multiplex. The protocol:
A two-step assay configuration was chosen when hapten-BSA-coated beads were used. Specifically, hapten-BSA-coated capture beads were diluted in Bead Diluent (Quanterix) to a concentration of 5,000 beads/μL. Biotinylated detector antibodies were diluted in Detector Diluent (Quanterix) to the desired concentration (1 pM for anti-cortisol antibodies, and 1 nM for anti-PGE2 antibodies). SβG concentrate was diluted to 200 pM in SβG Diluent (Quanterix). Cortisol and PGE2 standards were serially diluted to desired concentrations in Sample Diluent. The reagents including beads, detector, and SβG were placed in plastic bottles (Quanterix). The samples were loaded onto a 96-well plate (Quanterix). […] Images of the arrays were analyzed and AEB (average enzyme per bead) values were calculated by the software in the SIMOA HD-1 ANALYZER™.
as §3
We applied single molecule array assay to small molecule detection by developing a bead-based competitive protocol. […] The beads labeled with detection probes were then labeled with an enzyme, SβG, via biotin-streptavidin interaction and detected by enzymatic readout on the SIMOA™ platform. […]

Test [5] deals with anti-cortisol antibody. The experiment in a line: Two-plex single molecule array assay for PGE2 and cortisol: cortisol. To be noted: simultaneous detection of cortisol and PGE2. The procedure:
as §1, §2, §3

The test system of test [6] is anti-cortisol antibody (XM210). The test is described as follows: Multiplex single molecule array assay for IL-6 and cortisol: cortisol (competitive). The settings on record: simultaneous detection of IL-6 and cortisol. The protocol:
A two-step assay configuration was used for simultaneous detection of IL-6 and cortisol. BSA-cortisol coated beads were mixed with anti-IL6 capture beads (1:1 in number). The mixed beads were diluted to a concentration of 10,000 beads/μL. A mixture of detection antibodies, 10 pM for anti-cortisol antibody (XM210) and 1 nM for anti-IL6 detector, was prepared in Detector Diluent. A mixture of cortisol and IL-6 standards was serially diluted to desired concentrations. All the other conditions were the same as the single-plex assay.
Standard curves were obtained by plotting the signal responses (AEB and OD) against the logarithm of analyte concentrations using Origin software (Origin 9.5). The 4-parameter logistic equation y=A2+(A1−A2)/[1+(x/x0)^P] was used for curve fitting in the whole concentration range, where A1 is the maximum signal without analyte, A2 is the minimum signal at infinite concentration, p is the curve slope at the inflection point, and x0 is the IC50 (analyte concentration causing a 50% inhibition of the maximum response). The lower the IC50 is, the higher the sensitivity is. The limit of detection (LOD) was calculated as three standard deviations (SDs) above the background. All measurements were performed in triplicate. […]

We go through 2 molecules from patent US20210231673A1, “METHODS AND COMPOSITIONS FOR DETECTION AND QUANTIFICATION OF SMALL MOLECULES AND OTHER ANALYTES” (President and Fellows of Harvard College, priority 2018, published 2021).

Consider `CCCCC[C@H](O)/C=C/[C@H]1[C@H](O)CC(=O)[C@@H]1C/C=C\CCCC(=O)O` [PGE2, Prostaglandin E2], for which the “IC50 for PGE2, two-plex assay” value in test [1] is listed as 0.7 ng/mL. In test [2], the “IC50 for PGE2, single-plex assay” value amounted to 0.37 ng/mL.
For the molecule `C[C@]12CCC(=O)C=C1CC[C@@H]1[C@@H]2[C@@H](O)C[C@@]2(C)[C@H]1CC[C@]2(O)C(=O)CO` [cortisol], in test [3], the “ELISA IC50” value was found to be 170.23 ng/mL. Further, the “IC50 for cortisol, single-plex assay” value in test [4] was 0.54 ng/mL. Also, the “IC50 for cortisol, two-plex assay” value in test [5] is on record as 0.46 ng/mL. In test [6], the “IC50 for cortisol, multiplex assay with IL-6” value is recorded as 0.57 ng/mL.
